Source: US20240076609A1, “COMPOSITIONS AND METHODS FOR CULTURING AND EXPANDING CELLS” (LIFE TECHNOLOGIES CORPORATION, priority 2017, published 2024)
“And” between values parts separate entries of the source, which are not always exact repeats. Equal values may be shown once.

Key:
[1] = tested on: mixed CD4+ T cells and CD8+ T cells; assay: Expansion of mixed CD4+ and CD8+ T cells at set ratios (5:1, 10:1) with 2-DG; format: cell-based, human; details: for Cultured T Cell Population Doublings at 5:1 CD4+:CD8+ Cells / Cultured T Cell Population Doublings at 10:1 CD4+:CD8+ Cells: 0.25 mM 2-DG
Method: T cell activation and expansion: T cells (seeding density 1×10^6 vc/mL) were activated with DYNABEADS® Human T-Expander CD3/CD28 (Thermo Fisher Scientific, Cat. No. 11141D) at a ratio of 3 beads per T cell and cultured in serum-free medium, animal origin free medium. T cells were counted on days 5, 7, 10, and 12 on a Vi-CELL XR analyzer (Beckman Coulter, Indianapolis IN) and fed with or without 2-DG (0.25 mM, 0.5 mM, 1 mM, 2 mM, and 4 mM) and 5% human AB serum to a density of 5×10^5 vc/mL on days 3, 5, and 7 and 1×10^6 vc/mL on day 10. For some studies, CD8+ and CD4+ T cells were isolated from PBMCs by negative selection using Untouched Human CD8+ and CD4+ T Cells Kits. Naïve and non-naïve T cells were isolated from enriched T cells by positive selection using CD45RA nanobeads (Miltenyi). CD4+ and CD8+ T cells were mixed at two different CD4+:CD8+ ratios (5:1 and 10:1) to determine the effect of 2-DG on CD8+ T cells. All conditions with and without 2-DG expanded to about 6 to 7 population doublings. Results illustrate that the effect of 2-DG treatment in cell growth was similar in both mixtures. (FIGS. 19 and 20). In FIGS. 38 and 39, CD4+ and CD8+ T cells were mixed at two different CD4:CD8 ratios (5:1 and 10:1) to determine the effect of 2-DG on CD8+ T cells. All conditions with and without 2-DG expanded to about 6 to 7 population doublings. Results illustrate that the effect of 2-DG treatment in cell growth was similar in both mixtures.

[2] = tested on: Pan CD3+ T cells; assay: T cell expansion with 2-DG titration (population doublings); format: cell-based, human
Method: 2-Deoxy-D-Glucose Preparation: 2-Deoxy-D-Glucose (2-DG, 164.16 g/mol) was manufactured by (Acros Organics, cat. no. 111980-250). The 2-DG solution was prepared in sterile filtered water at a stock concentration of 100 mM, then aliquoted in Eppendorf tubes at a final volume of 1 mL in each tube. Cell Culture: T cell isolation: De-identified, frozen apheresis bags from normal donors were obtained from HemaCare Corp. Van Nuys, CA 91406. T cells were negatively isolated from PBMCs with the DYNABEADS® […] Human T Cells kit (Thermo Fisher Scientific, Cat. No. 11344D). T cell activation and expansion: T cells (seeding density 1×10^6 vc/mL) were activated with DYNABEADS® Human T-Expander CD3/CD28 (Thermo Fisher Scientific, Cat. No. 11141D) at a ratio of 3 beads per T cell and cultured in serum-free medium, animal origin free medium. T cells were counted on days 5, 7, 10, and 12 on a Vi-CELL XR analyzer (Beckman Coulter, Indianapolis IN) and fed with or without 2-DG (0.25 mM, 0.5 mM, 1 mM, 2 mM, and 4 mM) and 5% human AB serum to a density of 5×10^5 vc/mL on days 3, 5, and 7 and 1×10^6 vc/mL on day 10. 2-Deoxy-D-Glucose Preparation: 2-Deoxy-D-Glucose (2-DG, 164.16 g/mol) is manufactured by Acros Organics (part of Thermo Fisher Scientific). The 2-DG solution was prepared in sterile filtered water at a stock concentration of 100 mM, then aliquoted in Eppendorf tubes at a final volume of 1 mL in each tube. Cell Culture: T cell isolation: De-identified, frozen apheresis bags from normal donors were obtained from HemaCare. T cells were negatively isolated from PBMCs with the DYNABEADS® […] Human T Cells kit (Thermo Fisher Scientific, Cat. No. 11344D). T cell activation and expansion: T cells (seeding density 1×10^6 vc/mL) were activated with DYNABEADS® Human T-Expander CD3/CD28 (Thermo Fisher Scientific, Cat. No. 11141D) at a ratio of 3 beads per T cell and cultured in serum-free medium, animal origin free medium. T cells were counted on days 5, 7, 10, and 12 on a Vi-CELL XR analyzer (Beckman Coulter, Indianapolis IN) and fed with or without 2-DG (0.25 mM, 0.5 mM, 1 mM, 2 mM, and 4 mM) and 5% human AB serum to a density of 5×10^5 vc/mL on days 3, 5, and 7 and 1×10^6 vc/mL on day 10.

Compound: O=CC[C@@H](O)[C@H](O)[C@H](O)CO [2-DG, 2-Deoxy-D-Glucose]
- Cultured T Cell Population Doublings at 5:1 CD4+:CD8+ Cells ([1]; day 5): 2.84 and 1.95
- Cultured T Cell Population Doublings at 10:1 CD4+:CD8+ Cells ([1]; day 5): 1.97
- Cultured T Cell Population Doublings at 5:1 CD4+:CD8+ Cells ([1]; day 7): 5.44 and 2.84
- Cultured T Cell Population Doublings at 10:1 CD4+:CD8+ Cells ([1]; day 7): 2.98
- Cultured T Cell Population Doublings at 5:1 CD4+:CD8+ Cells ([1]; day 10): 6.17 and 5.44
- Cultured T Cell Population Doublings at 10:1 CD4+:CD8+ Cells ([1]; day 10): 5.67
- Cultured T Cell Population Doublings at 10:1 CD4+:CD8+ Cells ([1]; day 12): 6.25
- population doublings ([1]; CD4+:CD8+ ratios 5:1 and 10:1): 6 to 7 population doublings
- Cultured T Cell Population Doublings ([2]; 0.25 mM 2-DG, day 5, Table 12): 1.79
- Cultured T Cell Population Doublings ([2]; 0.25 mM 2-DG, day 5, single values, Table 31): 1.44 and 1.64 and 1.57
- Cultured T Cell Population Doublings ([2]; 0.25 mM 2-DG, day 7, Table 12): 3.67
- Cultured T Cell Population Doublings ([2]; 0.25 mM 2-DG, day 7, single values, Table 31): 3.40 and 3.54 and 3.35
- Cultured T Cell Population Doublings ([2]; 0.25 mM 2-DG, day 10, Table 12): 6.20
- Cultured T Cell Population Doublings ([2]; 0.25 mM 2-DG, day 10, single values, Table 31): 4.85 and 5.70 and 5.81
- Cultured T Cell Population Doublings ([2]; 0.25 mM 2-DG, day 12, Table 12): 6.49
- Cultured T Cell Population Doublings ([2]; 0.25 mM 2-DG, day 12, single values, Table 31): 5.72 and 6.57 and 6.47
- Cultured T Cell Population Doublings ([2]; 0.5 mM 2-DG, day 5, Table 12): 1.81
- Cultured T Cell Population Doublings ([2]; 0.5 mM 2-DG, day 5, single values, Table 31): 1.40 and 1.69 and 1.04
- Cultured T Cell Population Doublings ([2]; 0.5 mM 2-DG, day 7, Table 12): 4.17
- Cultured T Cell Population Doublings ([2]; 0.5 mM 2-DG, day 7, single values, Table 31): 3.95 and 3.32 and 3.33
- Cultured T Cell Population Doublings ([2]; 0.5 mM 2-DG, day 10, Table 12): 6.07
- Cultured T Cell Population Doublings ([2]; 0.5 mM 2-DG, day 10, single values, Table 31): 5.06 and 6.28 and 6.75
- Cultured T Cell Population Doublings ([2]; 0.5 mM 2-DG, day 12, Table 12): 6.16
- Cultured T Cell Population Doublings ([2]; 0.5 mM 2-DG, day 12, single values, Table 31): 6.13 and 6.22 and 6.48
- Cultured T Cell Population Doublings ([2]; 1 mM 2-DG, day 5, Table 12): 1.15
- Cultured T Cell Population Doublings ([2]; 1 mM 2-DG, day 5, Table 25): 2.08
- Cultured T Cell Population Doublings ([2]; 1 mM 2-DG, day 7, Table 12): 3.40
- Cultured T Cell Population Doublings ([2]; 1 mM 2-DG, day 7, Table 25): 3.87
- Cultured T Cell Population Doublings ([2]; 1 mM 2-DG, day 10, Table 12): 4.93
- Cultured T Cell Population Doublings ([2]; 1 mM 2-DG, day 10, Table 25): 7.19
- Cultured T Cell Population Doublings ([2]; 1 mM 2-DG, day 12, Table 12): 4.60
- Cultured T Cell Population Doublings ([2]; 1 mM 2-DG, day 12, Table 25): 7.00
- Cultured T Cell Population Doublings ([2]; 2 mM 2-DG, day 5, Table 12): 0.15
- Cultured T Cell Population Doublings ([2]; 2 mM 2-DG, day 5, Table 25): 1.87
- Cultured T Cell Population Doublings ([2]; 2 mM 2-DG, day 7, Table 12): 1.33
- Cultured T Cell Population Doublings ([2]; 2 mM 2-DG, day 7, Table 25): 3.53
- Cultured T Cell Population Doublings ([2]; 2 mM 2-DG, day 10, Table 12): 3.29
- Cultured T Cell Population Doublings ([2]; 2 mM 2-DG, day 10, Table 25): 7.10
- Cultured T Cell Population Doublings ([2]; 2 mM 2-DG, day 12, Table 12): 2.44
- Cultured T Cell Population Doublings ([2]; 2 mM 2-DG, day 12, Table 25): 6.90
- population doublings ([2]; 4 mM 2-DG): about 6 population doublings
- Cultured T Cell Population Doublings ([2]; 4 mM 2-DG, day 5, Table 12): 2.24
- Cultured T Cell Population Doublings ([2]; 4 mM 2-DG, day 5, Table 25): 1.92
- Cultured T Cell Population Doublings ([2]; 4 mM 2-DG, day 7, Table 12): 3.84
- Cultured T Cell Population Doublings ([2]; 4 mM 2-DG, day 7, Table 25): 3.95
- Cultured T Cell Population Doublings ([2]; 4 mM 2-DG, day 10, Table 12): 6.78
- Cultured T Cell Population Doublings ([2]; 4 mM 2-DG, day 10, Table 25): 7.50
- Cultured T Cell Population Doublings ([2]; 4 mM 2-DG, day 12, Table 12): 6.63
- Cultured T Cell Population Doublings ([2]; 4 mM 2-DG, day 12, Table 25): 7.35
- expansion compared to control ([2]; 2-DG at 0.25 mM and 0.5 mM): expansion comparable to control
- effect of 2-DG supplementation on T cell growth ([2]; concentrations tested 0.25-4 mM): does not affect T cell growth even with lower concentrations
